According to PMC3491036 (PLoS ONE, 2012):
Where two headings read alike, the source gives them in different places. One block for each molecule: values may come before it.

Tests used:
XA binding sites = assay: Displacement of [3H]XA specific binding by competitors; parameters: species or system rat; settings: for displacement of radioactive XA specific binding: compound at 200 µM, displacement by 200 µM XA set at 100%
Method: Membranes (from brain or cell cultures) were incubated for 30 min at 0°C in 50 mM Pipes buffer, pH 7.4 in the presence of [^3H]-XA (2 µCi per µmole total XA at various concentrations). Non-specific binding was determined with 1 mM non-radioactive XA in the medium. Bound from free ligand was separated by rapid filtration on 25 mm Whatman GF/B filters and washing with incubation buffer (3×3 ml at 0°C). Radioactivity on filters was measured by liquid scintillation counting.
Two approaches were used for screening the pharmacological properties of XA specific binding. First, we tested at rather high concentration (200 µM) a battery of putative ligands for these sites. […] The fact that glutamate displaced not more than 10% of radioactive XA eliminates possible binding of XA on glutamate receptors under our conditions.

[1] = tested on: differentiated NCB-20 cells; assay: Cell-attached patch-clamp recording; format: cell-based, mouse neuroblastoma / Chinese hamster brain cell hybrid
Method: (§1) NCB-20 cells were plated at low density (10^4 cells/dish) in 35-mm dishes and differentiated with 1 mM db-cAMP. The culture medium was replaced twice a week and the cells were used after 5 days in culture. Cells were recorded either in cell-attached or whole-cell configuration of the patch-clamp technique using an Axopatch-B200 amplifier (Axon Instruments, CA, USA) in its voltage-clamp mode. […] Junction potentials were calculated using the routine procedure in the Clampex software (Axon instruments, CA, USA) and taken into account for current-voltage (I–V) relationships and reversal potential calculation according to the recording configuration.
For cell-attached recording the pipette was filled with a medium containing (in mM): N-Methyl-D-Glucamine (NMDG) chloride 140, KCl 1, MgCl2 10, EGTA 5, TEA-Cl 15, HEPES 10, pH = 7.4. To maintain the cell membrane potential close to zero, the recorded cells were continuously superfused with a bath solution containing (in mM): KCl 140, NaCl 1, MgCl2 1, CaCl2 0.5, EGTA-K 1, HEPES 10, D-glucose 10, pH = 7.4. […] Drugs were dissolved in DMSO and diluted in control solutions such that DMSO in the applied solution was diluted by a factor of at least 10^4. Drugs were applied to the recorded cells through a multi-barrel perfusion system, the rapid solution exchanger RCS-160 (Bio-Logic, Grenoble, France). […] The first tube was filled with control solution and was used to maintain a continuous superfusion of the recorded cell between applications. The selected tube was placed in front of the cell by axial rotation of calibrated angles and the application started when the selected tube takes place in front of the cell.
(§2) Data were analyzed offline using the clampfit routine of the Pclamp software package. The given results are means±SEM and statistical significance of the difference between means was determined using one way ANOVA followed by Dunnett's Multiple Comparison test.

NCB-20 cells = assay: Fluo-4 monitoring of [Ca2+]i changes; format: cell-based, mouse neuroblastoma / Chinese hamster brain cell hybrid
Method: The method of cellular calcium measurement used was as described previously. Briefly, NCB-20 cells were plated in glass-bottomed culture dishes and incubated at 37°C for four days. […] Then the cells were washed with Krebs for 30 min at room temperature in the dark. All settings of the laser (Argon-Krypton laser, turned to 488 nm), optical filter (BF 530/30) and microscope (Leica TCS-SP confocal inverted microscope) as well as data acquisition were controlled by the LCS (Leica Confocal System) software.
Images were recorded at a frequency of 0.1 Hz. Analysis was performed by defining regions of interest (ROI) in the first image. Values are expressed as the percentage of fluorescence change with respect to control and calculated as F/F 0 (%) (where F is the fluorescence intensity at a given time and F 0 the basal fluorescence intensity at the beginning of the experiment).
The cells were continuously superfused with normal Krebs medium and transiently submitted to the tested drug using a peristaltic pump with a flow rate of 1 ml/min. For each analyzed cell, the mean and the standard deviation (SD) of the F/F 0 of fluorescence were measured during 1–2 min before (base line) and after (signal) drug application and compared. Statistical significance of the difference between means was determined using one way ANOVA followed by Dunnett's Multiple Comparison Test for repeated measurements on absolute levels of fluo-4 fluorescence.

[2] = tested on: XA binding sites on crude synaptosomal membranes from rat brain; assay: [3H]-XA saturation and kinetic binding on crude synaptosomal membranes from rat brain
Method: Brains were rapidly extracted from adult male Wistar rats killed by decapitation after being stunned. All the following procedures were done with buffers cooled at 0°C. Brains were homogenized with a motor driven Teflon/glass apparatus in 10 vol (W/V) of sucrose 0.32 M containing potassium phosphate buffer pH 7.2 and 2 mM EDTA. After centrifugation at 1,500 g for 10 min to remove the crude nuclear fraction, the supernatant was spun at 35,000 g for 20 min. The pellet obtained was resuspended in lysis buffer (2 mM EDTA/water pH 6.0 at 0°C, spun at 100,000 g for 20 min). After washing the pellet with potassium phosphate buffer 50 mM, pH 6.0, the crude membrane fraction was directly used for further experiments or stored at −80°C.
(§3) Bound from free ligand was separated by rapid filtration on 25 mm Whatman GF/B filters and washing with incubation buffer (3×3 ml at 0°C). Radioactivity on filters was measured by liquid scintillation counting.

[3] = tested on: XA binding sites on IMR-32 neuroblastoma cells; assay: [3H]-XA saturation binding on IMR-32 neuroblastoma cell membranes; parameters: species or system human; settings: IMR-32 membranes, read-out: dissociation constant (Kd)
Method: Cultures were maintained for one week at 37°C in the presence of CO2 (5%).
(§4) Neurons were scraped into potassium phosphate buffer 50 mM, EDTA 2 mM, pH 6.0 at 0°C. After centrifugation at 2,000 g for 3 min to eliminate nuclei and large fragments, the supernatant was spun down at 15,000 g for 10 min; the pellet was washed with the same buffer and directly used for binding experiments.
as §3

[4] = tested on: XA binding sites on NCB-20 neuroblastoma cells; assay: [3H]-XA saturation binding on NCB-20 neuroblastoma cell membranes; parameters: species or system mouse neuroblastoma / Chinese hamster brain cell hybrid; settings: NCB-20 membranes, read-out: dissociation constant (Kd)
Method: as §4, §3

[5] = tested on: 75 transmembrane and soluble receptors, ion channels and monoamine transporters; assay: Cerep high-throughput profile screening; format: binding; settings: XA at 10 µM
Method: Secondly, to extend the pharmacological profile of XA, this compound was tested on high-throughput profile screening which involved a collection of 75 transmembrane and soluble receptors, ion channels and monoamine transporters (Cerep, France Laboratories, Poitiers). XA was tested on these collections of proteins at 10 µM concentration.

[6] = tested on: rat brain synaptosomal membranes; settings: read-out: EC50 of GTP-γ-S binding; XA 0.5 to 50 µM, 5 µM GDP, 20 mM MgCl2
Method: The Scintillation Proximity Assay (SPA) of Amersham was used. […] Brain synaptosomal membranes were thus incubated in assay buffer (pH 7.4) containing 20 mM HEPES, 100 mM NaCl, 20 mM MgCl2 with 0.3 nM [^35S]GTP-γ-S and 5 µM GDP for 30 min at room temperature. Non-specific binding was determined in the presence of 200 µM GTP. WGA SPA beads were added and the mixture was incubated at room temperature for a further 30 min. The plates were centrifuged at 1,200 g for 5 min and SPA cpm were determined by scintillation counting.

[7] = tested on: differentiated NCB-20 cells; assay: cells
Method: as §1, §2

various cell cultures = settings: concentration of 10 µM; cited from earlier work
[8] = peripheral administration; cited from earlier work
[9] = frequency histogram of the illustrated XA response
[10] = illustrated response to 10 µM XA, NMDG-Cl pipette, ramp protocol

SMILES: NCCCC(=O)O [GABA]
- displacement of radioactive XA specific binding (XA binding sites): very low potency

SMILES: O=C(O)c1cc(O)c2cccc(O)c2n1 [XA, Xanthurenic acid]
- Kob ([2]; [3H]-XA 0.2 µM, pH 7.4, 0°C): 1.44 min⁻¹
- Kd ([2]; from Kob and Koff, read-out: calculated Kd (from rate constants)): 1.4 µM
- Kd ([2]; saturation experiments, crude brain synaptosomal membranes, pH 7.4, 0°C, read-out: dissociation constant (Kd)): 0.74 µM
- Kd [3]: 0.75 µM
- Kd [4]: 1.3 µM
- IC50 (XA binding sites): 0.3 µM
- competition on the binding of specific ligands of the 75 proteins [5]: No significant competitive properties
- effect on adenosine, benzodiazepine, dopamine, GABA, canabinoid, histamine, muscarinic, opioid, purinergic and serotonin receptors [5]: no effect
- EC50 [6]: 2 ± 1.9 µM
- Hill coefficient ([7]; Hill fit of dose-response): 3.5
- maximal conductance ([7]; Hill fit of dose-response): 12.5 nS
- cells tested showing an XA induced response ([7]; XA 1 to 30 µM, whole-cell): about 71%
- reversal potential of XA-induced current ([7]; high chloride pipette medium): −3.3±4.0 mV
- reversal potential of XA-induced current ([7]; low chloride pipette medium): −3.8±2.5 mV
- EC50 ([7]; read-out: EC50 of XA activated conductance): 11.7 ± 2.2 µM
- Er1, global mean value ([1]; all XA responses, mean ± SEM): −32.2±4.0 mV
- Er2, global mean value ([1]; all XA responses, mean ± SEM): −13.9±1.1 mV
- Er3, global mean value ([1]; all XA responses, mean ± SEM): −1.0±0.6 mV
- Er4, global mean value ([1]; all XA responses, mean ± SEM): 11.5±0.8 mV
- Er5, global mean value ([1]; all XA responses, mean ± SEM): 31.1±2.0 mV
- Er1, mean of Gaussian fit [1, 9]: −23.2 mV
- Er2, mean of Gaussian fit [1, 9]: −9.6 mV
- Er3, mean of Gaussian fit [1, 9]: 0.8 mV
- Er4, mean of Gaussian fit [1, 9]: 12.6 mV
- Er5, mean of Gaussian fit [1, 9]: 20.3 mV
- reversal potential (Er), position 1 (initial value) [1, 10]: −9 mV
- reversal potential (Er), position 2 [1, 10]: about 14 mV
- reversal potential (Er), position 3 [1, 10]: ~25 mV
- reversal potential (Er), position 4 [1, 10]: ~−1 mV
- reversal potential (Er), position 5 [1, 10]: ~−26 mV
- persistence of signal before returning to basal levels (NCB-20 cells; 10 µM XA): about 5 min
- start of signal after XA application (NCB-20 cells; 10 µM XA): about 1 min
- intensity of fluo-4 signal above basal levels (NCB-20 cells; 10 µM XA, 6 min application): 60–80%
- fluo-4 fluorescence (F/F0) (NCB-20 cells; 25 µM XA after 5 min washout of NCS-486): 134.9±6.5%
- mean apparent maximum of the response (F/F0) (NCB-20 cells; XA 1 to 10 µM): about 157±3%
- EC50 (NCB-20 cells; read-out: EC50 of first (activation) phase of Ca2+ response): 1.4 µM
- toxicity in cell cultures (various cell cultures): apoptotic-like cell death
- brain penetration [8]: penetrates the brain freely

SMILES: O=C(O)c1cc(O)c2cc(-c3ccccc3)cc(O)c2n1 [XT-21]
- IC50 (XA binding sites): 4.6 µM
- functional properties in patch-clamp experiments [1]: agonistic
- response amplitude relative to 10 µM XA ([1]; XT-21 5 µM, cell-attached): about 2.5 fold
- response amplitude relative to 18 µM NCS-482 ([1]; XT-21 5 µM, cell-attached): ~1.5 fold

SMILES: O=C(O)c1cc(=O)c2ccccc2[nH]1 [kynurenic acid]
- displacement of radioactive XA specific binding (XA binding sites): 30%

SMILES: O=C(O)c1ccccn1 [picolinic acid]
- IC50 (XA binding sites): 41 ± 5 µM
- displacement of radioactive XA specific binding (XA binding sites): 60%

SMILES: O=C(O)c1cccnc1C(=O)O [quinolinic acid]
- displacement of radioactive XA specific binding (XA binding sites): 40%

More lines, main results first:

- IC50 (XA binding sites): 0.35 µM
SMILES: O=C(O)c1cc(O)c2c(Cl)cc(Cl)c(O)c2n1 [NCS-482]
- functional properties in patch-clamp experiments [1]: agonistic

- IC50 (XA binding sites): 14.6 µM
SMILES: Nc1cccc2c(O)cc(C(=O)O)nc12 [NCS-486]
- functional properties in patch-clamp experiments [1]: antagonistic
- reduction of the agonist-induced current-response ([1]; NCS-486 20 µM co-applied with 5 µM XT-21): 86.1±5.0%
- reduction of the agonist-induced current-response ([1]; NCS-486 20 µM co-applied with 10 µM XA): 88.3±3.8%
- reduction of the agonist-induced current-response ([1]; NCS-486 20 µM co-applied with 18 µM NCS-482): 88.7±3.2%
- effect when applied alone ([1]; NCS-486 20 µM, 6 cells tested): did not have any effect by itself
- fluo-4 fluorescence (F/F0) (NCB-20 cells; 100 µM NCS-486 applied alone, 5 min): 83.9±2.7%
- fluo-4 fluorescence (F/F0) (NCB-20 cells; 100 µM NCS-486 with 25 µM XA, 5 min): 86.9±0.7%
